Positions count from the first letter of the chain named.
Assays:
[1] = molecular target: T1, PPARγ WT LBD (Homo sapiens, UniProt P37231); test: SPR (Biacore T200, immobilized LBD); assay type: binding
T1 construct: gene PPARG; LBD, residues 195–477 in PPARγ1 numbering
T1 sequence (P37231 223-505): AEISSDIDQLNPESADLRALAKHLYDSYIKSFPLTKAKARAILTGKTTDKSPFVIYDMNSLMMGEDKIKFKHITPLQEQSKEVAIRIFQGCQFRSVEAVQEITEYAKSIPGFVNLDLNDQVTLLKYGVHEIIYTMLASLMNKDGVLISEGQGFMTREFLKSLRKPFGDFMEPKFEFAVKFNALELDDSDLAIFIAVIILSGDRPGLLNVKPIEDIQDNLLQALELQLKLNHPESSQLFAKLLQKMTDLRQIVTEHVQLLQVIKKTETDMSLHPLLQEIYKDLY

[2] = molecular target: T2, PPARγ R288A mutant LBD (Homo sapiens, UniProt P37231, R316A); test: ([…] Å) and SPR (Biacore T200); assay type: binding
T2 construct: gene PPARG; LBD, residues 195–477 in PPARγ1 numbering
T2 sequence (P37231 223-505 R316A): T1 sequence (P37231 223-505) with R94A

Kd [1]: 231 nM
Kd [2]: 152 nM
SMILES: Cc1ccc(NC(=O)c2ccc(CN3CCN(C)CC3)cc2)cc1Nc1nccc(-c2cccnc2)n1 [imatinib]
